# Key:
# HDAC1 enzyme = molecular target: T1, HDAC1 enzyme (Homo sapiens, UniProt Q13547); assay: In vitro HDAC assay for determination of IC50 values (BIOMOL fluorescent-based HDAC activity assay); format: biochemical
# T1 construct: Amplification of human HDAC1 coding region from this cDNA library was cloned separately into the baculovirus expression pDEST20 vector; made in house; host or cells: SF9 insect cells, pDEST20-HDAC1 baculovirus
# Protocol: Human cDNA library was prepared using cultured SW620 cells. Amplification of human HDAC1 coding region from this cDNA library was cloned separately into the baculovirus expression pDEST20 vector (GATEWAY Cloning Technology, Invitrogen Pte Ltd). The pDEST20-HDAC1 construct was confirmed by DNA sequencing. Recombinant baculovirus was prepared using the Bac-To-Bac method following the manufacturer's instruction (Invitrogen Pte Ltd).
# Expression of GST-HDAC1 was done by infecting SF9 cells (Invitrogen Pte Ltd) with pDEST20-HDAC1 baculovirus at MOI=1 for 48 h. Soluble cell lysate was incubated with pre-equilibrated Glutathione Sepharose 4B beads (Amersham) at 4° C. for 2 h. The beads were washed with PBS buffer for 3 times. The GST-HDAC1 protein was eluted by elution buffer containing 50 mM Tris, pH8.0, 150 mM NaCl, 1% Triton X-100 and 10 mM or 20 mM reduced Glutathione. The purified GST-HDAC1 protein was dialyzed with HDAC storage buffer containing 10 mM Tris, pH7.5, 100 mM NaCl and 3 mM MgCl2. 20% Glycerol was added to purified GST-HDAC1 protein before storage at −80° C.
# The assay has been carried out in 96 well format and the BIOMOL fluorescent-based HDAC activity assay has been applied. […] Flur de lys Developer was added and the reaction was incubated for 10 min. Briefly, deacetylation of the substrate sensitizes it to the developer, which then generates a fluorophore. The fluorophore is excited with 360 nm light and the emitted light (460 nm) is detected on a fluorometric plate reader (Tecan Ultra Microplate detection system, Tecan Group Ltd.).
# The analytical software, Prism 4.0 (GraphPad Software Inc) has been used to generate IC50 from a series of data.
# Colo205 cells = assay: Cell-based proliferation assay for GI50 (CyQUANT), Colo205; settings: Homo sapiens, COLO 205, 96 h treatment, read-out: Cellular or Growth Inhibition Activity in Colo205 cells, GI50
# Protocol: Human colon cancer cell lines (Colo205, HCT116), Ovarian cancer cell line (A2780), Hepatoma cell line (HEP3B), Prostate cancer cell line (PC3) were obtained from ATCC or ECACC. Colo205 cells were cultivated in RPMI 1640 containing 2 mM L-Glutamine, 5% FBS, 1.0 mM Na Pyruvate, 1 U/ml of penicillin and 1 μg of streptomycin. HCT116 cells were cultivated in McCoy's containing RPMI 1640 containing 2 mM L-Glutamine, 5% FBS, 1 U/ml of penicillin and 1 μg of streptomycin. A2780 cells were cultivated in RPMI 1640 containing 2 mM L-Glutamine, 5% FBS, 1 U/ml of penicillin and 1 μg of streptomycin. HEP3B cells were cultivated in EMEM containing 2 mM L-glutamine, 5% FBS, 1% non essential amino acid, 1 mM Na Pyruvate, 1 U/ml of penicillin and 1 μg of streptomycin. PC3 cells were cultivated in F12K, 2 mM L-glutamine, 5% FBS, 1 U/ml of penicillin and 1 μg of streptomycin. PC3, Colo205, and HCT116 cells were seeded in 96-wells plate at 1000, 5000 and 6000 cells per well respectively. A2780 and HEP3B cells were seeded in 96-wells plate at 4000 cells per well respectively. The plates were incubated at 37° C., 5% CO2, for 24 h. Cells were treated with compounds at various concentrations for 96 h. Cell growth was then monitored using CyQUANT® cell proliferation assay (Invitrogen Pte Ltd). Dose response curves were plotted to determine GI50 values for the compounds using XL-fit (ID Business Solution, Emeryville, Calif.). GI50 is defined as the concentration of compound required for 50% inhibition of cell growth.
# T1 sequence (Q13547 whole entry): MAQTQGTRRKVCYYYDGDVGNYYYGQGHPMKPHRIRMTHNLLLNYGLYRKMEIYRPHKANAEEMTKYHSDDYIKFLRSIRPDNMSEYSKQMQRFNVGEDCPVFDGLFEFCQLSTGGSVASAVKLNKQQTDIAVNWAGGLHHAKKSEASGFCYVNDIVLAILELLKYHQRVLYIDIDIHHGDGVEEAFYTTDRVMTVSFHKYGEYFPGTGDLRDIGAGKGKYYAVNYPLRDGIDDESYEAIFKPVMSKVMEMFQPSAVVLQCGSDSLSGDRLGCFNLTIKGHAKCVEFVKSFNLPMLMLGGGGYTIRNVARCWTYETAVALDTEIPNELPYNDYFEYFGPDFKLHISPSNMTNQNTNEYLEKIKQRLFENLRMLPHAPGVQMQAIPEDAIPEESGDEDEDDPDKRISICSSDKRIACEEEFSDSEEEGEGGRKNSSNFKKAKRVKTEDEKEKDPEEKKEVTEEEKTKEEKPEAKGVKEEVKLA
IC50 (HDAC1 enzyme),GI50 (Colo205 cells),SMILES
140 nM,1770 nM,"C=CCCc1nc2cc(/C=C/C(=O)NO)ccc2n1CC(C)(C)CN(C)C [Compound 10, 3-[2-But-3-enyl-1-(3-dimethylamino-2,2-dimethyl-propyl)-1H-benzoimidazol-5-yl]-N-hydroxy-acrylamide]"
16 nM,610 nM,"CCCC(C)CN(CCn1cnc2cc(/C=C/C(=O)NO)ccc21)C(C)C (stereo not drawn) [Compound 113, N-Hydroxy-3-(1-{2-[isopropyl-(2-methyl-pentyl)-amino]-ethyl}-1H-benzoimidazol-5-yl)-acrylamide]"
100 nM,1070 nM,"CCCCCCN(CC)CCn1cnc2cc(/C=C/C(=O)NO)ccc21 [Compound 87, 3-{1-[2-(Ethyl-hexyl-amino)-ethyl]-1H-benzoimidazol-5-yl}-N-hydroxy-acrylamide]"
340 nM,8800 nM,"CN(C)CCn1c(CC(F)(F)F)nc2cc(/C=C/C(=O)NO)ccc21 [Compound 66, 3-[1-(2-Dimethylamino-ethyl)-2-(2,2,2-trifluoro-ethyl)-1H-benzoimidazol-5-yl]-N-hydroxy-acrylamide]"
31 nM,140 nM,"CCCN(CCn1cnc2cc(/C=C/C(=O)NO)ccc21)CCC(C)(C)C [Compound 128, 3-(1-{2-[(3,3-Dimethyl-butyl)-propyl-amino]-ethyl}-1H-benzoimidazol-5-yl)-N-hydroxy-acrylamide]"
130 nM,1190 nM,"CCN(CC)CCn1c(CC(C)(C)C)nc2cc(/C=C/C(=O)NO)ccc21 [Compound 17, 3-[1-(2-Diethylamino-ethyl)-2-(2,2-dimethyl-propyl)-1H-benzoimidazol-5-yl]-N-hydroxy-acrylamide]"
72 nM,560 nM,"CC(C)(C)CNCCn1cnc2cc(/C=C/C(=O)NO)ccc21 [Compound 133, 3-{1-[2-(2,2-Dimethyl-propylamino)-ethyl]-1H-benzoimidazol-5-yl}-N-hydroxy-acrylamide]"
64 nM,600 nM,"CCCCCN1CCCC(n2cnc3cc(/C=C/C(=O)NO)ccc32)C1 (stereo not drawn) [Compound 94, (E)-N-hydroxy-3-(1-(1-pentylpiperidin-3-yl)-1H-benzo[d]imidazol-5-yl)acrylamide]"
120 nM,880 nM,"CCCN(CC)CCn1cnc2cc(/C=C/C(=O)NO)ccc21 [Compound 112, 3-{1-[2-(Ethyl-propyl-amino)-ethyl]-1H-benzoimidazol-5-yl}-N-hydroxy-acrylamide]"
78 nM,340 nM,"C=CCCCN(C)CCn1cnc2cc(/C=C/C(=O)NO)ccc21 [Compound 127, N-Hydroxy-3-{1-[2-(methyl-pent-4-enyl-amino)-ethyl]-1H-benzoimidazol-5-yl}-acrylamide]"
44 nM,1740 nM,"CCN(CC)CCn1c(CCCCCC#N)nc2cc(/C=C/C(=O)NO)ccc21 [Compound 110, 3-[2-(5-Cyano-pentyl)-1-(2-diethylamino-ethyl)-1H-benzoimidazol-5-yl]-N-hydroxy-acrylamide]"
130 nM,1770 nM,"CCCNc1nc2cc(/C=C/C(=O)NO)ccc2n1CCN(CC)CC [Compound 105, 3-[1-(2-Diethylamino-ethyl)-2-propylamino-1H-benzoimidazol-5-yl]-N-hydroxy-acrylamide]"
52 nM,570 nM,"CCCCN(CC)CCn1cnc2cc(/C=C/C(=O)NO)ccc21 [Compound 95, 3-{1-[2-(Butyl-ethyl-amino)-ethyl]-1H-benzoimidazol-5-yl}-N-hydroxy-acrylamide]"
110 nM,1750 nM,"C=CCCc1nc2cc(/C=C/C(=O)NO)ccc2n1CCNCC [Compound 49, 3-[2-But-3-enyl-1-(2-ethylamino-ethyl)-1H-benzoimidazol-5-yl]-N-hydroxy-acrylamide]"
50 nM,1820 nM,"CCCCCc1nc2cc(/C=C/C(=O)NO)ccc2n1CCN(CC)CCCO [Compound 92, 3-(1-{2-[Ethyl-(3-hydroxy-propyl)-amino]-ethyl}-2-pentyl-1H-benzoimidazol-5-yl)-N-hydroxy-acrylamide]"
190 nM,1800 nM,"CCCCN(CC)CCn1c(C(F)(F)F)nc2cc(/C=C/C(=O)NO)ccc21 [Compound 117, 3-{1-[2-(Butyl-ethyl-amino)-ethyl]-2-trifluoromethyl-1H-benzoimidazol-5-yl}-N-hydroxy-acrylamide]"

# Further lines, the compound ahead of its results:
SMILES,IC50 (HDAC1 enzyme),GI50 (Colo205 cells)
"CCCc1nc2cc(/C=C/C(=O)NO)ccc2n1CCN(CC)CC [Compound 42, 3-[1-(2-Diethylamino-ethyl)-2-propyl-1H-benzoimidazol-5-yl]-N-hydroxy-acrylamide]",150 nM,980 nM
"CC(Cc1nc2cc(/C=C/C(=O)NO)ccc2n1CCCNC(C)C)CC(C)(C)C (stereo not drawn) [Compound 32, N-Hydroxy-3-[1-(3-isopropylamino-propyl)-2-(2,4,4-trimethyl-pentyl)-1H-benzoimidazol-5-yl]-acrylamide]",60 nM,740 nM
"C#CCCc1nc2cc(/C=C/C(=O)NO)ccc2n1CC(C)(C)CN(C)C [Compound 9, 3-[2-But-3-ynyl-1-(3-dimethylamino-2,2-dimethyl-propyl)-1H-benzoimidazol-5-yl]-N-hydroxy-acrylamide]",210 nM,1870 nM
"CC/C=C\CCc1nc2cc(/C=C/C(=O)NO)ccc2n1CCNC(C)C [Compound 28, 3-[2-Hex-3-enyl-1-(2-isopropylamino-ethyl)-1H-benzoimidazol-5-yl]-N-hydroxy-acrylamide]",21 nM,180 nM
"CCN(CC)CCn1c(CNC(=O)C(C)(C)C)nc2cc(/C=C/C(=O)NO)ccc21 [Compound 61, 3-{1-(2-Diethylamino-ethyl)-2-[(2,2-dimethyl-propionylamino)-methyl]-1H-benzoimidazol-5-yl}-N-hydroxy-acrylamide]",70 nM,1320 nM
"CC/C=C\CCCCCc1nc2cc(/C=C/C(=O)NO)ccc2n1CCNC [Compound 73, N-Hydroxy-3-[1-(2-methylamino-ethyl)-2-non-6-enyl-1H-benzoimidazol-5-yl]-acrylamide]",26 nM,230 nM
"CCN(CC)CCn1c(CCNC(=O)CC(C)(C)C)nc2cc(/C=C/C(=O)NO)ccc21 [Compound 59, N-{2-[1-(2-Diethylamino-ethyl)-5-(2-hydroxycarbamoyl-vinyl)-1H-benzoimidazol-2-yl]-ethyl}-3,3-dimethyl-butyramide]",77 nM,2280 nM
"CN(C)CC(C)(C)Cn1c(C2CCCCC2)nc2cc(/C=C/C(=O)NO)ccc21 [Compound 24, 3-[2-Cyclohexyl-1-(3-dimethylamino-2,2-dimethyl-propyl)-1H-benzoimidazol-5-yl]-N-hydroxy-acrylamide]",510 nM,2990 nM
"CSCCc1nc2cc(/C=C/C(=O)NO)ccc2n1CC(C)(C)CN(C)C [Compound 4, 3-[1-(3-Dimethylamino-2,2-dimethyl-propyl)-2-(2-methylsulfanyl-ethyl)-1H-benzoimidazol-5-yl]-N-hydroxy-acrylamide]",120 nM,2620 nM
"CC(C)(C)CCN1CCC(n2cnc3cc(/C=C/C(=O)NO)ccc32)CC1 [Compound 104, (E)-3-(1-(1-(3,3-dimethylbutyl)piperidin-4-yl)-1H-benzo[d]imidazol-5-yl)-N-hydroxyacrylamide]",410 nM,1990 nM
CCNCCn1c(CC(C)(C)C)nc2cc(/C=C/C(=O)NO)ccc21 [Compound 36],96 nM,860 nM

# From patent publication US8143282B2, “Heterocyclic compounds” (S*BIO Pte Ltd., priority 2005, dated 2012)
